# ± gives the standard deviation of the averaged measurements.
# How the values were obtained:
# [1] = TIMS collisional cross section (CCS, N2) of the lipid ion; higher = larger ion cross section; conditions: ionization mode: negative, one isomer drawn
# Method: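 Lipid extracts of human plasma (NIST SRM 1950), mouse liver or HeLa cells were separated by nanoflow C18 LC (30 min gradient) and analysed by TIMS-PASEF on a timsTOF Pro. Ion mobility was calibrated with the Agilent tuning mix (negative mode ions) and converted to collisional cross sections (Mason–Schamp, N2).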
# [2] = as above; conditions: ionization mode: positive, one isomer drawn
# [3] = sample type: Human plasma, ion (formula + adduct): [C34H62O5-H] 1-
# [4] = sample type: Human plasma, ion (formula + adduct): [C36H66O5-H] 1-
smiles,measurement,setting,value
CCCCC/C=C\C/C=C\CCCCCCCC(=O)OC[C@H](COP(=O)(O)OCC(O)COP(=O)(O)OC[C@@H](COC(=O)CCCCCCC/C=C\C/C=C\CCCCC)OC(=O)CCCCCCC/C=C\C/C=C\CCCCC)OC(=O)CCCCCCC/C=C\C/C=C\CCCCC (some centres undefined) [CL 18:2_18:2_18:2_18:2],TIMS collisional cross section,"[1]; sample type: Mouse Liver, ion (formula + adduct): [C81H142O17P2-H] 2-",411.8 Å²
CCCCCCCCCCCCC/C=C/[C@@H](O)[C@H](CO)NC(=O)CCCCCCCCCCCCCCCCCCCCC [Cer d18:1_22:0],TIMS collisional cross section,"[1]; sample type: Mouse Liver, ion (formula + adduct): [C40H79NO3-H] 1-",265 Å²
CCCCC/C=C\C/C=C\CCCCCCCC(=O)O[C@@H](CO)COC(=O)CCCCCCCCCCC [DG 12:0@_18:2_0:0],TIMS collisional cross section,"[1]; sample type: Human plasma, ion (formula + adduct): [C33H60O5-H] 1-",229.1 Å²
CCCCC/C=C\C/C=C\CCCCCCCC(=O)O[C@@H](CO)COC(=O)CCCCCCCCCCCC [DG 13:0@_18:2_0:0],TIMS collisional cross section,[1]; [3],244.7 Å²
CCCCCCCC/C=C\CCCCCCCC(=O)O[C@@H](CO)COC(=O)CCCCCCCCCCCC [DG 13:0_18:1@_0:0],TIMS collisional cross section,"[1]; sample type: Mouse Liver, ion (formula + adduct): [C34H64O5+AcO] 1-",252.3 Å²
CCCCC/C=C\C/C=C\C/C=C\C/C=C\CCCC(=O)O[C@@H](CO)COC(=O)CCCCCCCCCCCCC [DG 14:0@_20:4_0:0],TIMS collisional cross section,"[1]; sample type: Human plasma, ion (formula + adduct): [C37H64O5+HCOO] 1-",256.2 Å²
CCCC/C=C\CCCCCCCC(=O)OC[C@H](CO)OC(=O)CCCCCCCCC/C=C\C/C=C\CCCCC [DG 14:1@_20:2_0:0],TIMS collisional cross section,"[1]; sample type: Human plasma, ion (formula + adduct): [C37H66O5-H] 1-",247.2 Å²
CCCCC/C=C\C/C=C\CCCCCCCC(=O)O[C@@H](CO)COC(=O)CCCCCCCCCCCCCC [DG 15:0@_18:2_0:0],TIMS collisional cross section,[1]; [4],254.4 Å²
CCCCC/C=C\CCCCCCCC(=O)OC[C@H](CO)OC(=O)CCCCCCC/C=C\CCCCCC [DG 15:1@_16:1_0:0],TIMS collisional cross section,[1]; [3],245.3 Å²
CCCCC/C=C\CCCCCCCC(=O)OC[C@H](CO)OC(=O)CCCCCCC/C=C\CCCCCCCC [DG 15:1@_18:1_0:0],TIMS collisional cross section,[1]; [4],253.8 Å²
CC/C=C\C/C=C\C/C=C\CCCCCCCC(=O)O[C@@H](CO)COC(=O)CCCCCCC/C=C\CCCCC [DG 15:1@_18:3_0:0],TIMS collisional cross section,"[1]; sample type: Human plasma, ion (formula + adduct): [C36H62O5-H] 1-",251.2 Å²
CCCCCCCCCCCCCCCC(=O)OC[C@@H](O)COP(=O)(O)O [LPA 16:0_0:0],TIMS collisional cross section,"[1]; sample type: Human plasma, ion (formula + adduct): [C19H39O7P-H] 1-",201.2 Å²
CCCCCC/C=C\CCCCCCCC(=O)OC[C@@H](O)COP(=O)(O)O [LPA 16:1_0:0],TIMS collisional cross section,"[1]; sample type: Human plasma, ion (formula + adduct): [C19H37O7P-H] 1-",198.2 Å²
CCCCCCCC/C=C\CCCCCCCC(=O)OC[C@@H](O)COP(=O)(O)O [LPA 18:1_0:0],TIMS collisional cross section,"[1]; sample type: Human plasma, ion (formula + adduct): [C21H41O7P-H] 1-",205 Å²
CCCCC/C=C\C/C=C\CCCCCCCC(=O)OC[C@@H](O)COP(=O)(O)O [LPA 18:2_0:0],TIMS collisional cross section,"[1]; sample type: Human plasma, ion (formula + adduct): [C21H39O7P-H] 1-",207.7 ± 8.1 Å²
CCCCC/C=C\C/C=C\C/C=C\C/C=C\CCCC(=O)OC[C@@H](O)COP(=O)(O)O [LPA 20:4_0:0],TIMS collisional cross section,"[1]; sample type: Human plasma, ion (formula + adduct): [C23H39O7P-H] 1-",207.1 Å²
CC/C=C\C/C=C\C/C=C\C/C=C\C/C=C\CCCC(=O)OCC(O)COP(=O)(O)O (centres undefined) [LPA 20:5],TIMS collisional cross section,"[1]; sample type: Human plasma, ion (formula + adduct): [C23H37O7P-H] 1-",206.5 Å²
CC/C=C\C/C=C\C/C=C\C/C=C\C/C=C\C/C=C\CCC(=O)OC[C@@H](O)COP(=O)(O)O [LPA 22:6_0:0],TIMS collisional cross section,"[1]; sample type: Human plasma, ion (formula + adduct): [C25H39O7P-H] 1-",211 Å²
same,TIMS collisional cross section,"[1]; sample type: Mouse Liver, ion (formula + adduct): [C25H39O7P-H] 1-",211.6 Å²
CCCCCCCCCCCCCC(=O)OC[C@@H](O)COP(=O)([O-])OCC[N+](C)(C)C [LPC 14:0_0:0],TIMS collisional cross section,"[1]; sample type: Human plasma, ion (formula + adduct): [C22H46NO7P+HCOO] 1-",231.1 ± 0.42 Å²
same,TIMS collisional cross section,"[1]; sample type: Human plasma, ion (formula + adduct): [C22H46NO7P-CH3] 1-",219.7 Å²
same,TIMS collisional cross section,"[1]; sample type: Mouse Liver, ion (formula + adduct): [C22H46NO7P+HCOO] 1-",231.3 Å²
CCCCCCCCCCCCCCCC(=O)OC[C@@H](O)COP(=O)([O-])OCC[N+](C)(C)C [LPC 16:0_0:0],TIMS collisional cross section,"[1]; sample type: Human plasma, ion (formula + adduct): [C24H50NO7P+Cl] 1-",234.8 Å²
same,TIMS collisional cross section,"[1]; sample type: Human plasma, ion (formula + adduct): [C24H50NO7P+HCOO] 1-",238.02 ± 0.4 Å²
same,TIMS collisional cross section,"[1]; sample type: Human plasma, ion (formula + adduct): [C24H50NO7P-CH3] 1-",218.1 Å²
same,TIMS collisional cross section,"[1]; sample type: Mouse Liver, ion (formula + adduct): [C24H50NO7P+HCOO] 1-",241.2 ± 5.1 Å²
same,TIMS collisional cross section,"[1]; sample type: Mouse Liver, ion (formula + adduct): [C24H50NO7P-CH3] 1-",218.7 Å²
CCCCCC/C=C/CCCCCCCC(=O)OC[C@@H](O)COP(=O)([O-])OCC[N+](C)(C)C [LPC 16:1_0:0],TIMS collisional cross section,"[1]; sample type: Human plasma, ion (formula + adduct): [C24H48NO7P+HCOO] 1-",236.14 ± 0.68 Å²
same,TIMS collisional cross section,"[1]; sample type: Human plasma, ion (formula + adduct): [C24H48NO7P-CH3] 1-",237.8 Å²
same,TIMS collisional cross section,"[1]; sample type: Mouse Liver, ion (formula + adduct): [C24H48NO7P+HCOO] 1-",235 ± 0.42 Å²
CCCCCCCCCCCCCCCCCC(=O)OC[C@@H](O)COP(=O)([O-])OCC[N+](C)(C)C [LPC 18:0_0:0],TIMS collisional cross section,"[1]; sample type: Human plasma, ion (formula + adduct): [C26H54NO7P+HCOO] 1-",246.01 ± 2.8 Å²
same,TIMS collisional cross section,"[1]; sample type: Human plasma, ion (formula + adduct): [C26H54NO7P-CH3] 1-",225.5 Å²
same,TIMS collisional cross section,"[1]; sample type: Mouse Liver, ion (formula + adduct): [C26H54NO7P+HCOO] 1-",244.8 ± 0.42 Å²
CC/C=C\C/C=C\C/C=C\CCCCCCCC(=O)OC[C@@H](O)COP(=O)([O-])OCC[N+](C)(C)C [LPC 18:3_0:0],TIMS collisional cross section,"[1]; sample type: Human plasma, ion (formula + adduct): [C26H48NO7P+HCOO] 1-",238.3 ± 0.42 Å²
same,TIMS collisional cross section,"[1]; sample type: Human plasma, ion (formula + adduct): [C26H48NO7P-CH3] 1-",220.2 Å²
CCCCCCCCCCCCCCCCCCCC(=O)OC[C@@H](O)COP(=O)([O-])OCC[N+](C)(C)C [LPC 20:0_0:0],TIMS collisional cross section,"[1]; sample type: Human plasma, ion (formula + adduct): [C28H58NO7P+HCOO] 1-",253 Å²
CC/C=C\C/C=C\C/C=C\C/C=C\C/C=C\CCCCCC(=O)OC[C@@H](COC(=O)CCCCCCC/C=C\C/C=C\CCCCC)OC(=O)CCC/C=C\C/C=C\C/C=C\C/C=C\CCCCC [TG 18:2_20:4_22:5] (ion (formula + adduct): [C63H100O6+NH4] 1+),TIMS collisional cross section,[2]; sample type: Liver,333 Å²
CC/C=C\C/C=C\C/C=C\C/C=C\C/C=C\C/C=C\CCC(=O)OC[C@@H](COC(=O)CCCCCCC/C=C\C/C=C\CCCCC)OC(=O)CCC/C=C\C/C=C\C/C=C\C/C=C\CCCCC [TG 18:2_20:4_22:6] (ion (formula + adduct): [C63H98O6+NH4] 1+),TIMS collisional cross section,[2]; sample type: Liver,330.4 Å²
CC/C=C\C/C=C\C/C=C\C/C=C\C/C=C\C/C=C\CCC(=O)OC[C@@H](COC(=O)CCCCCCC/C=C\C/C=C\CCCCC)OC(=O)CCCCC/C=C\C/C=C\C/C=C\C/C=C\CCCCC [TG 18:2_22:4_22:6] (ion (formula + adduct): [C65H102O6+NH4] 1+),TIMS collisional cross section,[2]; sample type: Liver,335.6 Å²
CC/C=C\C/C=C\C/C=C\C/C=C\C/C=C\C/C=C\CCC(=O)OC[C@@H](COC(=O)CCCCCCC/C=C\C/C=C\CCCCC)OC(=O)CC/C=C\C/C=C\C/C=C\C/C=C\C/C=C\C/C=C\CC [TG 18:2_22:6_22:6] (ion (formula + adduct): [C65H98O6+NH4] 1+),TIMS collisional cross section,[2]; sample type: Liver,333.6 Å²
CC/C=C\C/C=C\C/C=C\C/C=C\C/C=C\C/C=C\CCC(=O)OC[C@@H](COC(=O)CCC/C=C\C/C=C\C/C=C\C/C=C\CCCCC)OC(=O)CCC/C=C\C/C=C\C/C=C\C/C=C\CCCCC [TG 20:4_20:4_22:6] (ion (formula + adduct): [C65H98O6+NH4] 1+),TIMS collisional cross section,[2]; sample type: HeLa,333.7 Å²
CC/C=C\C/C=C\C/C=C\C/C=C\C/C=C\C/C=C\CCC(=O)OC[C@@H](COC(=O)CCC/C=C\C/C=C\C/C=C\C/C=C\CCCCC)OC(=O)CCCCC/C=C\C/C=C\C/C=C\C/C=C\C/C=C\CC [TG 20:4_22:5_22:6] (ion (formula + adduct): [C67H100O6+NH4] 1+),TIMS collisional cross section,[2]; sample type: HeLa,338.1 Å²
CC(C)CC[C@@H](O)[C@](C)(O)[C@H]1CC[C@@]2(O)C3=CC(=O)[C@@H]4C[C@@H](O)[C@@H](O)C[C@]4(C)[C@H]3CC[C@]12C [ponasterone A] (ion (formula + adduct): [C27H44O6+H] 1+),TIMS collisional cross section,[2]; sample type: plasma,219 Å²
C1C[C@H](O)C(CO)[C@]2([H])CCC3=C([C@]21C)CC[C@]1(C)[C@@]([H])([C@H](C)CC/C=C(/C)\C)CC[C@]13[H] (some centres undefined) [zymosterol intermediate 1a] (ion (formula + adduct): [C28H46O2+H] 1+),TIMS collisional cross section,[2]; sample type: Liver,219 Å²
